Article PMC11219871, “Epigenetic-based differentiation therapy for Acute Myeloid Leukemia” (Nature Communications, 2024)
Read-outs that look alike come from different tables or passages of the source.

Experiments:
BRD2 (BD1) = target: T1, BRD2 (BD1) (Homo sapiens, UniProt P25440); test: Epigenetic panel (BPS Bioscience); type: binding
T1 construct: BRD2 (BD1); purchased BPS Bioscience (contracted assay service)
Description: (§1) The selectivity of CM-444 and CM-1758 against other epigenetic targets, including histone demethylase (JMJD2A, JMJD2B, JMJD2C, JMJD2D, JMJD2E, JMJD3, JMJD1A, LSD1, Jarid1A, Jarid1B, Jarid1C, FBXL10, FBXL11, JHDM1D, JMJD1B, PHF8, LSD2 and UTX); histone acetyltransferases (GCN5, P300); histone methyltransferases (G9a, GLP, MLL1, SET7/9, SUV39H1, SUV39H2, PRMT1, PRMT3, PRMT4, PRMT5, PRMT6, PRMT8, PRMT9, NSD1, NSD2, EZH1, EZH2, SETDB1, SETD2, SET8, SUV4-20H1, SMYD2, SMYD3, DOT1L, EZH2 (A677G), EZH2 (A677G), EZH2 (A738T), EZH2 (Y641S), EZH2 (P132S), EZH2 (Y641C), EZH2 (Y641F), EZH2 (Y641H), EZH2 (Y641N)); bromodomains (ATAD2B, ATAD2A, BRD1, BRD9, BPTF/FALZ, CeCR2, BRPF3, BRD3 (BD1 + BD2), BAZ2B, WDR9, TAF1 (BD2), TAF1L (BD2), TAF1L (BD1 + BD2), BRD2 (BD1), BRD2 (BD2), BRD2 (BD1 + BD2), BRD3 (BD1), BRD3 (BD2), BRD4 (BD1), BRD4 (BD2), BRD4 (BD1 + BD2), BRDT (BD1), BRDT (BD1 + BD2), CREBBP, SMARCA2A, SMARCA4/BRG1); DNA methyltranferases (DNMT1, DNMT3A/3L and DNMT3B/3L), and sirtuin histone deacetylases (SIRT1, SIRT2, SIRT3, SIRT5 and SIRT6), were determined by BPS Bioscience (http://www.bpsbioscience.com/index.ph). Binding experiments were performed in duplicate at a concentration of 10 μM.

SMARCA4/BRG1 = target: T2, SMARCA4/BRG1 (Homo sapiens, UniProt P51532); test: Epigenetic panel (BPS Bioscience); type: binding
T2 construct: purchased BPS Bioscience; Eurofins (HDAC4, 5, 7-11)
Description: as §1

BPTF/FALZ = target: T3, BPTF/FALZ (Homo sapiens, UniProt Q12830); test: Epigenetic panel (BPS Bioscience); type: binding
T3 construct: purchased BPS Bioscience; Eurofins (HDAC4, 5, 7-11)
Description: as §1

SMARCA2A = target: T4, SMARCA2A (Homo sapiens, UniProt P51531); test: Epigenetic panel (BPS Bioscience); type: binding
T4 construct: purchased BPS Bioscience; Eurofins (HDAC4, 5, 7-11)
Description: as §1

BRDT (BD1+BD2) = target: T5, BRDT (BD1+BD2) (Homo sapiens, UniProt Q58F21); test: Epigenetic panel (BPS Bioscience); type: binding
T5 construct: purchased BPS Bioscience; Eurofins (HDAC4, 5, 7-11)
Description: as §1

BAZ2B = target: T6, BAZ2B (Homo sapiens, UniProt Q9UIF8); test: Epigenetic panel (BPS Bioscience); type: binding
T6 construct: purchased BPS Bioscience; Eurofins (HDAC4, 5, 7-11)
Description: as §1

BRD2 (BD2) = target: T7, BRD2 (BD2) (Homo sapiens, UniProt P25440); test: Epigenetic panel (BPS Bioscience); type: binding
T7 construct: purchased BPS Bioscience; Eurofins (HDAC4, 5, 7-11)
T7 sequence (P25440 339-459 limits assumed): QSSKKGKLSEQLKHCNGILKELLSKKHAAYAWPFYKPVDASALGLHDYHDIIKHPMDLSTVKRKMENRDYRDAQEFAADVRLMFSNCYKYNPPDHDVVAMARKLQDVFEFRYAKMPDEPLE
Description: as §1

WDR9 = target: T8, WDR9 (Homo sapiens, UniProt Q9NSI6); test: Epigenetic panel (BPS Bioscience); type: binding
T8 construct: purchased BPS Bioscience (contracted assay service)
T8 sequence (Q9NSI6 whole entry): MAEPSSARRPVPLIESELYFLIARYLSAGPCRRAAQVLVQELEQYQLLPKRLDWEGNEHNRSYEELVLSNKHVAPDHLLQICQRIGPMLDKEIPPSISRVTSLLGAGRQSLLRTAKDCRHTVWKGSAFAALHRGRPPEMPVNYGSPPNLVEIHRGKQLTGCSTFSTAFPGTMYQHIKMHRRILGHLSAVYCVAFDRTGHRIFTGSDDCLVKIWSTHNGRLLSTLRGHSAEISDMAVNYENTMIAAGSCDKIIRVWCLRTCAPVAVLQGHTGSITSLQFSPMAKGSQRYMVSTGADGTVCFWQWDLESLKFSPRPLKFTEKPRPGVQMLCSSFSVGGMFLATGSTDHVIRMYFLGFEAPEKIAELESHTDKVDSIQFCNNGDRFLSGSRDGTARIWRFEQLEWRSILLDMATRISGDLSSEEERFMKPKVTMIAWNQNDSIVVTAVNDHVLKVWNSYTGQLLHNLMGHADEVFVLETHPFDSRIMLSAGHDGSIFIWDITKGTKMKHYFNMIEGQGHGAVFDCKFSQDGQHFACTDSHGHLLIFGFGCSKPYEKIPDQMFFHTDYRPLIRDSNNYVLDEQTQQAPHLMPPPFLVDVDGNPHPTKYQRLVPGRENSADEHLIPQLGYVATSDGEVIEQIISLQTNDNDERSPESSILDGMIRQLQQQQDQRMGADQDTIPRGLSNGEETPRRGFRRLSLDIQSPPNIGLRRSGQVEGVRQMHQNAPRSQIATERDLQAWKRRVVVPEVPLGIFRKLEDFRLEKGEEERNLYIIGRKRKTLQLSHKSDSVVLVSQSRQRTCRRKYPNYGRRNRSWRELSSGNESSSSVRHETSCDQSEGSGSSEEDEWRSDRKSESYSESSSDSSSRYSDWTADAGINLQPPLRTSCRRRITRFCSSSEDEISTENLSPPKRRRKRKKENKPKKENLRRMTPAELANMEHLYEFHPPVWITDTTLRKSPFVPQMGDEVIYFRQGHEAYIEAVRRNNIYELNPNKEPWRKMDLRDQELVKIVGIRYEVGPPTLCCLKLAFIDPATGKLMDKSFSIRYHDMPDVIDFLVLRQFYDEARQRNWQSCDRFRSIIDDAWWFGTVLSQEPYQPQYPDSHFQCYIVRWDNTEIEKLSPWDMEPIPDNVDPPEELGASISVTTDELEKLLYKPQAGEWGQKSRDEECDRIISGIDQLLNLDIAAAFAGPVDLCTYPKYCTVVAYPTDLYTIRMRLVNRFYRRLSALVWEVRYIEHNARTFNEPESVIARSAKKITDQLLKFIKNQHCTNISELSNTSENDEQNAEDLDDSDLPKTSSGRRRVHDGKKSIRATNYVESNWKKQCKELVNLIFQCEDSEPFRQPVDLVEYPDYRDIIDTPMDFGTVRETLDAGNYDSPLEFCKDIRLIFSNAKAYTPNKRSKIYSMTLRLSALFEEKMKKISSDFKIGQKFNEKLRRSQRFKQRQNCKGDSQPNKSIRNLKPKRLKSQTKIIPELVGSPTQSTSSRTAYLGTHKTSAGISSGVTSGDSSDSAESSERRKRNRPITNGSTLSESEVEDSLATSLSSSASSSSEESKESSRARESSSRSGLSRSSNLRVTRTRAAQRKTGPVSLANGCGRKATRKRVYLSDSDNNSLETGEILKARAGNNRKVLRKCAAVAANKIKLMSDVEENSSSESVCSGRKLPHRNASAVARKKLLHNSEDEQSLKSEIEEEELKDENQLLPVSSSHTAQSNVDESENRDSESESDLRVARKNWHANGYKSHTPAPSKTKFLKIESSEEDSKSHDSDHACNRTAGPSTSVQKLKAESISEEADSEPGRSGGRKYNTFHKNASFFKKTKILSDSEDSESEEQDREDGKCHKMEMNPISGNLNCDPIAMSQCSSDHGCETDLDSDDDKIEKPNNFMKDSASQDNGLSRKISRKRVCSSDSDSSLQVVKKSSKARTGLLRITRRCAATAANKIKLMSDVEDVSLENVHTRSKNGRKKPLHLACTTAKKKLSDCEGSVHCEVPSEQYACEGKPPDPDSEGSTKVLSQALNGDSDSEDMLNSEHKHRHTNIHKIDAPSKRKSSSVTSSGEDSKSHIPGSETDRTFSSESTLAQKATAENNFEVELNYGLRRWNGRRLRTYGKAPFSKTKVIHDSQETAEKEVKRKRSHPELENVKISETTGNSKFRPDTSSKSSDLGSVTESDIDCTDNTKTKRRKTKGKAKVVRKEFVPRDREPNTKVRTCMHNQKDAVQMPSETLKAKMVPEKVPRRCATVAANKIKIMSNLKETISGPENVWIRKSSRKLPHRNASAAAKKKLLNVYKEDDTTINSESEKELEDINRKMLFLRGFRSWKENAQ
Description: as §1

BRD4 (BD2) = target: T9, BRD4 (BD2) (Homo sapiens, UniProt O60885); test: Epigenetic panel (BPS Bioscience); type: binding
T9 construct: purchased BPS Bioscience; Eurofins (HDAC4, 5, 7-11)
Description: as §1

BRD3 (BD1) = target: T10, BRD3 (BD1) (Homo sapiens, UniProt Q15059); test: Epigenetic panel (BPS Bioscience); type: binding
T10 construct: BRD3 (BD1); purchased BPS Bioscience (contracted assay service)
T10 sequence (Q15059 34-140 limits assumed): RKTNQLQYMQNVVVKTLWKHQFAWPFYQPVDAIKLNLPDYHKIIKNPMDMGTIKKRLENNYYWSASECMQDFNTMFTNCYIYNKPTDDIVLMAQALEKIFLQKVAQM
Description: as §1

CeCR2 = target: T11, CeCR2 (Homo sapiens, UniProt Q9BXF3); test: Epigenetic panel (BPS Bioscience); type: binding
T11 construct: purchased BPS Bioscience (contracted assay service)
T11 sequence (Q9BXF3 whole entry): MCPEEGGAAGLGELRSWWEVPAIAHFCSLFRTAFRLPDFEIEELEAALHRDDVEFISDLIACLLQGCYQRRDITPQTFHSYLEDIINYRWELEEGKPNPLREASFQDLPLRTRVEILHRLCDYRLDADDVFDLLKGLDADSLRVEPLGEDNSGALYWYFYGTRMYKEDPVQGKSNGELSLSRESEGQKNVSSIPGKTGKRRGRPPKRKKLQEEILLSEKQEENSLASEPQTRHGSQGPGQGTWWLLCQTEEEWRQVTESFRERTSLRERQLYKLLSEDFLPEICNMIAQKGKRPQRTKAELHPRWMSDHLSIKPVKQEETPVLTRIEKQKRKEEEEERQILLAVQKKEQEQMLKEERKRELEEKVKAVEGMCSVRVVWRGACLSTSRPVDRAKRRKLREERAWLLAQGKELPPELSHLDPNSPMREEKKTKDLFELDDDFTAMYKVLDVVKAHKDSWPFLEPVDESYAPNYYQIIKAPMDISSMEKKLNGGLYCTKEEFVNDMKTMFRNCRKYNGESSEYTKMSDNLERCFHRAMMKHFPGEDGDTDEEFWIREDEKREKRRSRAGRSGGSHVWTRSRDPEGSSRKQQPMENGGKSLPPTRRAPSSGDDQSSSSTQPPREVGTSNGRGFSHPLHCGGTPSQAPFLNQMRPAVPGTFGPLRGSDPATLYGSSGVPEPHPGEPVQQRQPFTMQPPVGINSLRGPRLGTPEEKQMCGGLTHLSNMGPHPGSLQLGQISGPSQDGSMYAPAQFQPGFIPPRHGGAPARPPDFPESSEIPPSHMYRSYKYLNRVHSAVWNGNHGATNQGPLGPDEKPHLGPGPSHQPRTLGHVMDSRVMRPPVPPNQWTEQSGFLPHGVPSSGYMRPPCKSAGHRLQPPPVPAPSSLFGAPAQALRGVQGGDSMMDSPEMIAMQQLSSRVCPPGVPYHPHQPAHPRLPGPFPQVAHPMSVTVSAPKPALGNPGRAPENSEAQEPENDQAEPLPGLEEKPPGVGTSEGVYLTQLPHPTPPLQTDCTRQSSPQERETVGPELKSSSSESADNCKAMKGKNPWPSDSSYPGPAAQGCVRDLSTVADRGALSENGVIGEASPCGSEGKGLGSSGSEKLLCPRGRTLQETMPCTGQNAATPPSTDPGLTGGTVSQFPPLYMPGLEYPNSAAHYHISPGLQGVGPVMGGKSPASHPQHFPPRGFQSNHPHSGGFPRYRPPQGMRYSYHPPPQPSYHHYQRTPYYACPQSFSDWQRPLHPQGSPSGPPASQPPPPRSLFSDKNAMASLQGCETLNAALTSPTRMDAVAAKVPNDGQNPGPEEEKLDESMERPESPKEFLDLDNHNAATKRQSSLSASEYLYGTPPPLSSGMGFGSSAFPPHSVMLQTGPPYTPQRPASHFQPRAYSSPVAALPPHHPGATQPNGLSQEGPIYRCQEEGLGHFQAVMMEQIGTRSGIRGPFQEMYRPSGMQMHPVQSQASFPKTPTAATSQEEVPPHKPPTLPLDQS
Description: as §1

BRD1 = target: T12, BRD1 (Homo sapiens, UniProt O95696); test: Epigenetic panel (BPS Bioscience); type: binding
T12 construct: purchased BPS Bioscience; Eurofins (HDAC4, 5, 7-11)
Description: as §1

BRDT (BD1) = target: T13, BRDT (BD1) (Homo sapiens, UniProt Q58F21); test: Epigenetic panel (BPS Bioscience); type: binding
T13 construct: purchased BPS Bioscience; Eurofins (HDAC4, 5, 7-11)
Description: as §1

BRD2 (BD1+BD2) = target: T14, BRD2 (BD1+BD2) (Homo sapiens, UniProt P25440); test: Epigenetic panel (BPS Bioscience); type: binding
T14 construct: purchased BPS Bioscience; Eurofins (HDAC4, 5, 7-11)
Description: as §1

TAF1L (BD1+BD2) = target: T15, TAF1L (BD1+BD2) (Homo sapiens, UniProt Q8IZX4); test: Epigenetic panel (BPS Bioscience); type: binding
T15 construct: purchased BPS Bioscience; Eurofins (HDAC4, 5, 7-11)
T15 sequence (Q8IZX4 1395-1654): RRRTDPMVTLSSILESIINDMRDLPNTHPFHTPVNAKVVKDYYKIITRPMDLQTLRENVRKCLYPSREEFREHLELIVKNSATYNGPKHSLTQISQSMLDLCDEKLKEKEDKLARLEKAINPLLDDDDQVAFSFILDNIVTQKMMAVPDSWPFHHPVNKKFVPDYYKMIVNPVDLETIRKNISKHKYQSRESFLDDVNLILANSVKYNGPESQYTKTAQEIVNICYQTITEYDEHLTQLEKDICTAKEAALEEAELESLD
Description: as §1

BRD4 (BD1+BD2) = target: T16, BRD4 (BD1+BD2) (Homo sapiens, UniProt O60885); test: Epigenetic panel (BPS Bioscience); type: binding
T16 construct: purchased BPS Bioscience; Eurofins (HDAC4, 5, 7-11)
Description: as §1

BRD9 = target: T17, BRD9 (Homo sapiens, UniProt Q9H8M2); test: Epigenetic panel (BPS Bioscience); type: binding
T17 construct: purchased BPS Bioscience (contracted assay service)
T17 sequence (Q9H8M2 1-597): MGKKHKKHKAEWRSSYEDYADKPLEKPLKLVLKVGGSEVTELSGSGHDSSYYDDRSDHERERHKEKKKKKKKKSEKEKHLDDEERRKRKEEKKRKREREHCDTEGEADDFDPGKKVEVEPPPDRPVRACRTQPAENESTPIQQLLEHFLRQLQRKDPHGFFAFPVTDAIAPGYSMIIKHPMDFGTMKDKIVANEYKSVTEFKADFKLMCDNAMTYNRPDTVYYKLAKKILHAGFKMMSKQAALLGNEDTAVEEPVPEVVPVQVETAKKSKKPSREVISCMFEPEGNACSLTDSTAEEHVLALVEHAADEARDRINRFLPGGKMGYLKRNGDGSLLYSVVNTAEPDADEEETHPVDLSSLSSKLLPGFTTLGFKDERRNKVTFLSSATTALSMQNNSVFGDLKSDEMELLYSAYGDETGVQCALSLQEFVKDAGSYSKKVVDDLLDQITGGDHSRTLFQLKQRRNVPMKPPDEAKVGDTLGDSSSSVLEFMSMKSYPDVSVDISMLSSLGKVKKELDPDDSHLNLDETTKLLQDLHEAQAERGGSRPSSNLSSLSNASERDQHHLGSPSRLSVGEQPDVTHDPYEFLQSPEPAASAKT
Description: as §1

TAF1 (BD2) = target: T18, TAF1 (BD2) (Homo sapiens, UniProt P21675); test: Epigenetic panel (BPS Bioscience); type: binding
T18 construct: purchased BPS Bioscience; Eurofins (HDAC4, 5, 7-11)
T18 sequence (P21675 1522-1656 limits assumed): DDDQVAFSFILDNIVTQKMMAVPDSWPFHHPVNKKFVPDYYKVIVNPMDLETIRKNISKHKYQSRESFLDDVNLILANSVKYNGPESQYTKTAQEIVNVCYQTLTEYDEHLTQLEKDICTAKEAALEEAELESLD
Description: as §1

BRPF3 = target: T19, BRPF3 (Homo sapiens, UniProt Q9ULD4); test: Epigenetic panel (BPS Bioscience); type: binding
T19 construct: purchased BPS Bioscience; Eurofins (HDAC4, 5, 7-11)
Description: as §1

HDAC1 = HDAC1 (Homo sapiens, UniProt Q13547); test: HDAC enzymatic assay, fluorescence-labeled substrate; type: biochemical; details: for inhibition at 10 µM: source data of Fig. 1B
Sequence of HDAC1 (Q13547 whole entry): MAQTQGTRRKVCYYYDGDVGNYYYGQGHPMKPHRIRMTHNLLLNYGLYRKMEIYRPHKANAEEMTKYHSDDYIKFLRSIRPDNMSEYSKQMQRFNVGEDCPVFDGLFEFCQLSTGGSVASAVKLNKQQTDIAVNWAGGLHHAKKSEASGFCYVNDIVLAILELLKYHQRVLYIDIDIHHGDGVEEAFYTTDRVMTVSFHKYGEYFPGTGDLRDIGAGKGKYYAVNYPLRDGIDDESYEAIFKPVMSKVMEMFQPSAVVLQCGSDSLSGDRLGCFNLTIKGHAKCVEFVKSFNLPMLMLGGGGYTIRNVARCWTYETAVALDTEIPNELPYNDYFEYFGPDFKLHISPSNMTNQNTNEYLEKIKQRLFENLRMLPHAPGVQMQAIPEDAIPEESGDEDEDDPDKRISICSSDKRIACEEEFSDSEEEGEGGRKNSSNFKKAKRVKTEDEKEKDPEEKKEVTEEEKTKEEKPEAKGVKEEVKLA

T1 sequence (P25440 74-180 limits assumed): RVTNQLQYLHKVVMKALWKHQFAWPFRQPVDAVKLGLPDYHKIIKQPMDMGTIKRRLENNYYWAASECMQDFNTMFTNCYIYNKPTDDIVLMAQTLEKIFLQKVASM

| Compound | inhibition at 10 µM (BRD2 (BD1)) | inhibition at 10 µM (SMARCA4/BRG1) | inhibition at 10 µM (BPTF/FALZ) | inhibition at 10 µM (SMARCA2A) | inhibition at 10 µM (BRDT (BD1+BD2)) | inhibition at 10 µM (BAZ2B) | inhibition at 10 µM (BRD2 (BD2)) | inhibition at 10 µM (WDR9) | inhibition at 10 µM (BRD4 (BD2)) | inhibition at 10 µM (BRD3 (BD1)) | inhibition at 10 µM (CeCR2) | inhibition at 10 µM (BRD1) | inhibition at 10 µM (BRDT (BD1)) | inhibition at 10 µM (BRD2 (BD1+BD2)) | inhibition at 10 µM (TAF1L (BD1+BD2)) | inhibition at 10 µM (BRD4 (BD1+BD2)) | IC50 (BRD9) | inhibition at 10 µM (BRD9) | inhibition at 10 µM (TAF1 (BD2)) | inhibition at 10 µM (BRPF3) | also measured |
| --- | --- | --- | --- | --- | --- | --- | --- | --- | --- | --- | --- | --- | --- | --- | --- | --- | --- | --- | --- | --- | --- |
| COc1cc2nc(-c3cc(C)oc3C)cc(NCC3CCN(c4ncc(C(=O)NO)cn4)CC3)c2cc1OC [CM-1758, 2-[4-[[[2-(2,5-dimethyl-3-furyl)-6,7-dimethoxy-4-quinolyl]amino]methyl] -1-piperidyl]pyrimidine-5-carbohydroxamic acid] | 25% | 18% | 0% | 0% | 17% | 0% | 34% | 35% | 0% | 60% | 72% | 3% | 23% | 29% | 0% | 50% | 36 µM | 75% | 0% | 40% | IC50 (BRD3 (BD1)): > 50 µM; IC50 (CeCR2): 0.93 µM; inhibition at 10 µM (HDAC1): 90%; IC50 (HDAC1; read-out: HDAC1 IC50): 0.00432 µM; IC50 (HDAC1; read-out: IC50): 0.0043 µM |
| COc1cc2nc(-c3ccc(C)o3)cc(NCC3CCN(c4ncc(C(=O)NO)cn4)CC3)c2cc1OC [CM-444, 2-[4-[[[6,7-dimethoxy-2-(5-methyl-2-furyl)-4-quinolyl]amino]methyl]-1-piperidyl]pyrimidine-5-carbohydroxamic acid] | 71% | 0% | 0% | 0% | 38% | 0% | 0% | 51% | 0% | 20% | 0% | 0% | 44% | 21% | 0% | 41% | 13 µM | 69% | 0% | 0% | IC50 (BRD2 (BD1)): 30.8 µM; IC50 (WDR9): > 50 µM; inhibition at 10 µM (HDAC1): 90%; IC50 (HDAC1; read-out: IC50): 0.00655 µM |
